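In this assay, cells in 96-well plates receive the compound at five concentrations for 48 hours. Endpoints are linearly interpolated between the surrounding concentrations. Here, GI50 denotes the concentration required for 50% inhibition of growth. TGI marks complete inhibition of growth.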
What was measured:
Assay in all cases: DTP human tumour cell line panel, 48 h
[1] = system: HT29 colon
[2] = system: HL-60(TB) leukemia
[3] = system: SF-268 CNS
[4] = system: SN12C renal
[5] = system: OVCAR-4 ovarian
[6] = system: SNB-75 CNS
[7] = system: OVCAR-8 ovarian
[8] = system: HCT-116 colon
[9] = system: UACC-257 melanoma
[10] = system: NCI/ADR-RES ovarian
[11] = system: IGROV1 ovarian
[12] = system: MCF7 breast
[13] = system: KM12 colon
[14] = system: DU-145 prostate
[15] = system: SK-MEL-28 melanoma
[16] = system: HS 578T breast
[17] = system: SK-OV-3 ovarian
[18] = system: COLO 205 colon
[19] = system: A549 NSCLC
[20] = system: CAKI-1 renal
[21] = system: NCI-H522 lung
[22] = system: RXF 393 renal
[23] = system: K-562 leukemia
[24] = system: LOX IMVI melanoma
[25] = system: SK-MEL-5 melanoma
[26] = system: EKVX NSCLC
[27] = system: SF-295 CNS
[28] = system: PC-3 prostate
[29] = system: MALME-3M melanoma
[30] = system: SW-620 colon
[31] = system: NCI-H23 lung
[32] = system: NCI-H226 lung
[33] = system: UACC-62 melanoma
[34] = system: U251 CNS
[35] = system: A498 renal
[36] = system: T-47D breast
[37] = system: HOP-62 NSCLC
[38] = system: TK-10 renal
[39] = system: CCRF-CEM leukemia
[40] = system: BT-549 breast
[41] = system: MDA-MB-435
[42] = system: HOP-92 NSCLC
[43] = system: RPMI-8226 leukemia
[44] = system: M14 melanoma
[45] = system: MDA-MB-231 breast
[46] = system: OVCAR-3 ovarian
[47] = system: SK-MEL-2 melanoma
[48] = system: OVCAR-5 ovarian
[49] = system: HCT-15 colon
[50] = system: SNB-19 CNS
[51] = system: MOLT-4 leukemia
[52] = system: 786-0 renal
[53] = system: MDA-N
[54] = system: HCC-2998 colon
[55] = system: UO-31 renal
[56] = system: ACHN renal
[57] = system: SF-539 CNS
[58] = system: SR leukemia
[59] = system: NCI-H460 lung

SMILES: Cc1ccc2c(=O)cc(-c3sc4ccccc4c3C)[nH]c2n1
- TGI [1]: 78.1 µM
- GI50 [2]: 18.5 µM
- TGI [2]: 42.9 µM
- TGI [3]: 69.7 µM
- TGI [4]: > 100 µM
- TGI [5]: 54 µM
- TGI [6]: 50.8 µM
- TGI [7]: 56.3 µM
- TGI [8]: 55.6 µM
- TGI [9]: > 100 µM
- TGI [10]: 47.6 µM
- TGI [11]: 45.7 µM
- TGI [12]: > 100 µM
- TGI [13]: 36.4 µM
- TGI [14]: 65.9 µM
- TGI [15]: 71.4 µM
- TGI [16]: 51.7 µM
- TGI [17]: 71.4 µM
- TGI [18]: 65.8 µM
- TGI [19]: 85.6 µM
- TGI [20]: 53.3 µM
- TGI [21]: 42.3 µM
- GI50 [22]: 16.8 µM
- TGI [22]: 53.1 µM
- TGI [23]: > 100 µM
- TGI [24]: 46.7 µM
- GI50 [25]: 14.9 µM
- TGI [25]: 28.2 µM
- TGI [26]: 88.2 µM
- TGI [27]: 52.1 µM
- GI50 [28]: 33.4 µM
- TGI [28]: > 100 µM
- TGI [29]: 41.6 µM
- GI50 [30]: 19.8 µM
- TGI [30]: 65.8 µM
- GI50 [31]: 19.7 µM
- TGI [31]: 48.1 µM
- TGI [32]: 81.3 µM
- TGI [33]: 36.3 µM
- GI50 [34]: 38.7 µM
- TGI [34]: > 100 µM
- TGI [35]: > 100 µM
- TGI [36]: 55.8 µM
- TGI [37]: 75.4 µM
- TGI [38]: > 100 µM
- TGI [39]: 58.4 µM
- TGI [40]: 44.7 µM
- GI50 [41]: 4.84 µM
- TGI [41]: 17.8 µM
- TGI [42]: 30.6 µM
- TGI [43]: 38.1 µM
- TGI [44]: 51 µM
- TGI [45]: > 100 µM
- GI50 [46]: 19.7 µM
- TGI [46]: 50.1 µM
- TGI [47]: > 100 µM
- TGI [48]: > 100 µM
- TGI [49]: 73.8 µM
- TGI [50]: > 100 µM
- TGI [51]: 69.7 µM
- TGI [52]: 46.8 µM
- TGI [53]: 45 µM

SMILES: CC1=C(C(=O)OC(C)C)C(c2ccccc2C(F)(F)F)C(C(=O)OC(CO[N+](=O)[O-])CO[N+](=O)[O-])=C(C)N1 (configuration not stated)
- TGI [1]: 26.3 µM
- TGI [2]: > 100 µM
- TGI [3]: 38.7 µM
- TGI [4]: 32 µM
- TGI [54]: > 100 µM
- TGI [55]: 4.37 µM
- TGI [5]: 28.5 µM
- TGI [6]: 16.7 µM
- TGI [8]: 16.6 µM
- TGI [56]: 22.1 µM
- TGI [10]: 30.6 µM
- TGI [11]: 25.9 µM
- TGI [12]: 72.2 µM
- TGI [13]: 18.5 µM
- TGI [14]: > 100 µM
- TGI [15]: 55.3 µM
- TGI [16]: 49.8 µM
- TGI [17]: 38.9 µM
- TGI [18]: 63.5 µM
- TGI [19]: 33 µM
- TGI [20]: 38.5 µM
- TGI [21]: 14.2 µM
- TGI [22]: 24.7 µM
- TGI [23]: 41.7 µM
- TGI [24]: 21.1 µM
- TGI [25]: 11.4 µM
- TGI [26]: 70.2 µM
- TGI [27]: 21.8 µM
- TGI [28]: 12.2 µM
- TGI [29]: 33 µM
- TGI [30]: 23.3 µM
- TGI [31]: > 100 µM
- TGI [32]: 38.5 µM
- TGI [33]: 20.1 µM
- TGI [34]: 29 µM
- TGI [57]: 23.2 µM
- TGI [36]: > 100 µM
- TGI [37]: 29.5 µM
- TGI [38]: > 100 µM
- TGI [39]: 11.1 µM
- TGI [40]: 22.1 µM
- TGI [41]: 27.4 µM
- TGI [43]: > 100 µM
- TGI [44]: 23.9 µM
- TGI [45]: 28.2 µM
- TGI [58]: > 100 µM
- TGI [46]: 28.3 µM
- TGI [47]: 47.1 µM
- TGI [48]: 46.8 µM
- TGI [49]: 93.8 µM
- TGI [59]: 42.6 µM
- TGI [50]: > 100 µM
- TGI [51]: 9.79 µM
- TGI [52]: 14 µM
- TGI [53]: 21.9 µM

SMILES: O=c1ccn(C2OC(CN(O)CCC3C(CO)OC(n4ccc(=O)[nH]c4=O)C3O)C(O)C2O)c(=O)[nH]1 (configuration not stated)
- TGI [1]: > 100 µM
- TGI [2]: > 100 µM
- TGI [3]: > 100 µM
- TGI [4]: > 100 µM
- TGI [54]: > 100 µM
- TGI [55]: > 100 µM
- TGI [5]: > 100 µM
- TGI [6]: > 100 µM
- TGI [7]: > 100 µM
- TGI [8]: > 100 µM
- TGI [56]: > 100 µM
- TGI [9]: > 100 µM
- TGI [10]: > 100 µM
- TGI [11]: > 100 µM
- TGI [12]: > 100 µM
- TGI [13]: > 100 µM
- TGI [14]: > 100 µM
- TGI [15]: > 100 µM
- TGI [16]: > 100 µM
- TGI [17]: > 100 µM
- TGI [18]: > 100 µM
- TGI [19]: > 100 µM
- TGI [20]: > 100 µM
- TGI [22]: > 100 µM
- TGI [23]: > 100 µM
- TGI [25]: > 100 µM
- TGI [26]: > 100 µM
- TGI [27]: > 100 µM
- TGI [28]: > 100 µM
- TGI [29]: > 100 µM
- TGI [30]: > 100 µM
- TGI [31]: > 100 µM
- TGI [32]: > 100 µM
- TGI [33]: > 100 µM
- TGI [34]: > 100 µM
- TGI [35]: > 100 µM
- TGI [36]: > 100 µM
- TGI [37]: > 100 µM
- TGI [38]: > 100 µM
- TGI [39]: > 100 µM
- TGI [40]: > 100 µM
- TGI [41]: > 100 µM
- TGI [42]: > 100 µM
- TGI [43]: > 100 µM
- TGI [44]: > 100 µM
- TGI [45]: > 100 µM
- TGI [46]: > 100 µM
- TGI [47]: > 100 µM
- TGI [48]: > 100 µM
- TGI [49]: > 100 µM
- TGI [59]: > 100 µM
- TGI [50]: > 100 µM
- TGI [51]: > 100 µM
- TGI [52]: > 100 µM
- TGI [53]: > 100 µM

Reference: PubChem BioAssay (NCI)
